Structures can show the parent of a compound that is named as a salt.
What was measured:
BTK = biological target: T1, BTK (Homo sapiens, UniProt Q06187); assay: Cell Degradation: BTK degradation in TMD-8 cells, HTRF assay; assay type: cell-based; details: 6 h treatment, IC50 (DC50) of BTK degradation
T1 construct: High control=Cell group with added DMSO and without compound, indicating microplate readings without BTK degradation; endogenous in cells; host or cells: TMD-8 cells
Experimental: TMD-8 cells are treated with compounds in 0.2% DMSO, dilution is done according to the following protocol: (1) make 500× stock solution in DMSO from 1 mM by 6-fold dilution, total 8 doses were included; (2) make 2× solution in cell culture medium by transferring 0.5 μl 500× stock solution into 125 μl medium; (3) 15 μl of 2× solution is added to cells and incubate for 6 h.
After 6 h treatment, add […] 4×lysis buffer to each well; seal the plate and incubate 30 min at room temperature on a plate shaker; Once the cells are lysed, 16 μL of cell lysate are transferred to a PE 384-well HTRF detection plate; 4 μL of pre-mixed HTRF antibodies are added to each well; Cover the plate with a plate sealer, spin 1000 rpm for 1 min, Incubate overnight at room temperature; Read on BMG PheraStar with HTRF protocol (337 nm-665 nm-620 nm).
The inhibition (degradation) percentage of the compound was calculated by the following equation: Inhibition percentage of Compound=100-100× (Signal-low control)/(High control-low control), wherein signal=each test compound group
Dmax is the maximum percentage of inhibition (degradation).
The IC50 (DC50) value of a compound can be obtained by fitting the following equation
Y=Bottom+(TOP-Bottom)/(1+((IC50/X)^hillslope))
(§1) Wherein, X and Y are known values, and IC50, Hillslope, Top and Bottom are the parameters obtained by fitting with software. Y is the inhibition percentage (calculated from the equation), X is the concentration of the compound; IC50 is the concentration of the compound when the 50% inhibition is reached. The smaller the IC50 value is, the stronger the inhibitory ability of the compound is. Vice versa, the higher the IC50 value is, the weaker the ability the inhibitory ability of the compound is; Hillslope represents the slope of the fitted curve, generally around 1 *; Bottom represents the minimum value of the curve obtained by data fitting, which is generally 0%±20%; Top represents the maximum value of the curve obtained by data fitting, which is generally 100%±20%. The experimental data were fitted by calculating and analyzing with Dotmatics data analysis software.

HEK-293 cells = assay: HEK-293 Cytotoxicity Assay (CellTiter-Glo); assay type: cell-based; details: Homo sapiens, HEK293, 72 h incubation, CellTiter-Glo luminescence
Experimental: HEK-293 Cytotoxicity Assay
HEK-293 cells are treated with compounds diluted in 0.2% DMSO, dilution is done according to the following protocol: (1) make 500× stock solution in DMSO from 5 mM by 4-fold dilution, total 8 doses were included; (2) make 2× solution in cell culture medium by transferring 0.5 ul 500× stock solution into 125 ul medium; (3) 50 ul of 2× solution is added to cells and incubate for 72 h.
Add 25 μl of the CellTiter-Glo®Reagent [I (Promega)—Cat No. G7572] to each well in the 96-well plate. Mix contents for 2 minutes on an orbital shaker to induce cell lysis. Allow the plate to incubate at room temperature for 10 minutes to stabilize luminescent signal. Record luminescence on BMG PheraStar with luminescence protocol.
as §1, with “The IC50 value of a compound can be obtained by fitting the following equation. Y=Bottom+(TOP−Bottom)/(1+((IC50/X)^hillslope)) Wherein,” for “Wherein,”, “1*;” for “1 *;”

T1 sequence (Q06187 whole entry): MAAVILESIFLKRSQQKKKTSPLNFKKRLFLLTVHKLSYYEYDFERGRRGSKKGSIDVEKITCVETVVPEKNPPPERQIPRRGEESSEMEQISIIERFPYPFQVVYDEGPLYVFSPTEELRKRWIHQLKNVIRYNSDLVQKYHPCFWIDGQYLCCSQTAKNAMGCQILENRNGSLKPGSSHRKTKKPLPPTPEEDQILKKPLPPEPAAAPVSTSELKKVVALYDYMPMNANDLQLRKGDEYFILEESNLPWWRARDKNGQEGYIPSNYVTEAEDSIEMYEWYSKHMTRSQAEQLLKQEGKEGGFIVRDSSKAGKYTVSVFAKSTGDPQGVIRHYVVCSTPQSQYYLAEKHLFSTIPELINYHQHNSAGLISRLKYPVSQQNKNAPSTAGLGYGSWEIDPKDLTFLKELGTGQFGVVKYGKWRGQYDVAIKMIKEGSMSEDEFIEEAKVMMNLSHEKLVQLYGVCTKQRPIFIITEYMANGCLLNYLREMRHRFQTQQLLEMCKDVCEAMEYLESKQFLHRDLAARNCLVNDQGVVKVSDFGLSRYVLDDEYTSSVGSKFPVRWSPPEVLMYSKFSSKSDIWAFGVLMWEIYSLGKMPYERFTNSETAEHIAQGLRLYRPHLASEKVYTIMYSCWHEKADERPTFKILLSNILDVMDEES

DC50 (BTK) [nM] | SMILES | IC50 (HEK-293 cells) [µM]
4.7 | Cc1cc(-c2ncnc3[nH]c(-c4ccc(N5CCN(CCC6CCN(c7ccc(N8CCC(=O)NC8=O)c(Cl)c7)CC6)CC5)nc4)cc23)ccc1[C@@H](C)NC(=O)c1nc(C(C)(C)C)no1 [Example 26, (R)-3-(tert-butyl)-N-(1-(4-(6-(6-(4-(2-(1-(3-chloro-4-(2,4-dioxotetrahydropyrimidin-1(2H)-yl)phenyl)piperidin-4-yl)ethyl)piperazin-1-yl)pyridin-3-yl)-7H-pyrrolo[2,3-d]pyrimidin-4-yl)-2-methylphenyl)ethyl)-1,2,4-oxadiazole-5-carboxamide] | > 10
1.9 | COc1ccc(C(=O)N2CCC(CN3CCC(Oc4ccc(-c5cc6c(-c7ccc(CNC(=O)c8nc(C(C)(C)C)no8)c(C)c7)ncnc6[nH]5)cc4)CC3)CC2)cc1N1CCC(=O)NC1=O [Example 27, 3-(tert-butyl)-N-(4-(6-(4-((1-((1-(3-(2,4-dioxotetrahydropyrimidin-1(2H)-yl)-4-methoxybenzoyl)piperidin-4-yl)methyl)piperidin-4-yl)oxy)phenyl)-7H-pyrrolo[2,3-d]pyrimidin-4-yl)-2-methylbenzyl)-1,2,4-oxadiazole-5-carboxamide] | > 10
1.5 | Cc1c(NC(=O)c2ccc(C(C)(C)O)cc2F)cc(F)cc1-c1ncnc2[nH]c(-c3ccc(C4CCN(CC5CCN(c6ccc(N7CCC(=O)NC7=O)cc6)CC5)CC4)cc3)cc12 [Example 28, N-(3-(6-(4-(1-((1-(4-(2,4-dioxotetrahydropyrimidin-1(2H)-yl)phenyl)piperidin-4-yl)methyl)piperidin-4-yl)phenyl)-7H-pyrrolo[2,3-d]pyrimidin-4-yl)-5-fluoro-2-methylphenyl)-2-fluoro-4-(2-hydroxypropan-2-yl)benzamide] | 4.24
10.2 | C=C(C)c1ccc(C(=O)Nc2cc(F)cc(-c3ncnc4[nH]c(-c5ccc(C6CCN(CC7CCN(c8ccc(N9CCC(=O)NC9=O)cc8)CC7)CC6)cc5)cc34)c2C)c(F)c1 [Example 29, N-(3-(6-(4-(1-((1-(4-(2,4-dioxotetrahydropyrimidin-1(2H)-yl)phenyl)piperidin-4-yl)methyl)piperidin-4-yl)phenyl)-7H-pyrrolo[2,3-d]pyrimidin-4-yl)-5-fluoro-2-methylphenyl)-2-fluoro-4-(prop-1-en-2-yl)benzamide] | > 10
1.7 | Cc1cc(-c2ncnc3[nH]c(-c4ccc(N5CCN(CC6CCN(c7ccc(N8CCC(=O)NC8=O)cc7)CC6)CC5)cc4)cc23)ccc1CNC(=O)c1noc(C(C)(C)C)n1 [Example 30, 5-(tert-butyl)-N-(4-(6-(4-(4-((1-(4-(2,4-dioxotetrahydropyrimidin-1(2H)-yl)phenyl)piperidin-4-yl)methyl)piperazin-1-yl)phenyl)-7H-pyrrolo[2,3-d]pyrimidin-4-yl)-2-methylbenzyl)-1,2,4-oxadiazole-3-carboxamide] | > 10
1.5 | C[C@@H](NC(=O)c1noc(C(C)(C)C)n1)c1ccc(-c2ncnc3[nH]c(-c4ccc(N5CCN(CC6CCN(c7ccc(N8CCC(=O)NC8=O)cc7)CC6)CC5)cc4)cc23)cc1F [Example 31, (R)-5-(tert-butyl)-N-(1-(4-(6-(4-(4-((1-(4-(2,4-dioxotetrahydropyrimidin-1(2H)-yl)phenyl)piperidin-4-yl)methyl)piperazin-1-yl)phenyl)-7H-pyrrolo[2,3-d]pyrimidin-4-yl)-2-fluorophenyl)ethyl)-1,2,4-oxadiazole-3-carboxamide] | > 10
1.7 | CC(C)(C)c1noc(C(=O)NCc2ccc(-c3ncnc4[nH]c(-c5ccc(N6CCN(CC7CCN(c8ccc(N9CCC(=O)NC9=O)cc8)CC7)CC6)cc5)cc34)cc2F)n1 [Example 32, 3-(tert-butyl)-N-(4-(6-(4-(4-((1-(4-(2,4-dioxotetrahydropyrimidin-1(2H)-yl)phenyl)piperidin-4-yl)methyl)piperazin-1-yl)phenyl)-7H-pyrrolo[2,3-d]pyrimidin-4-yl)-2-fluorobenzyl)-1,2,4-oxadiazole-5-carboxamide] | > 10
1.7 | C[C@@H](NC(=O)c1nc(C(C)(C)C)no1)c1ccc(-c2ncnc3[nH]c(-c4ccc(N5CCN(CC6CCN(c7ccc(N8CCC(=O)NC8=O)cc7)CC6)CC5)nc4)cc23)cc1F [Example 33, (R)-3-(tert-butyl)-N-(1-(4-(6-(6-(4-((1-(4-(2,4-dioxotetrahydropyrimidin-1(2H)-yl)phenyl)piperidin-4-yl)methyl)piperazin-1-yl)pyridin-3-yl)-7H-pyrrolo[2,3-d]pyrimidin-4-yl)-2-fluorophenyl)ethyl)-1,2,4-oxadiazole-5-carboxamide] | > 10
1.2 | C[C@@H](NC(=O)c1noc(C(C)(C)C)n1)c1ccc(-c2ncnc3[nH]c(-c4ccc(N5CCN(CC6CCN(c7ccc(N8CCC(=O)NC8=O)cc7)CC6)CC5)nc4)cc23)cc1F [Example 34, (R)-5-(tert-butyl)-N-(1-(4-(6-(6-(4-((1-(4-(2,4-dioxotetrahydropyrimidin-1(2H)-yl)phenyl)piperidin-4-yl)methyl)piperazin-1-yl)pyridin-3-yl)-7H-pyrrolo[2,3-d]pyrimidin-4-yl)-2-fluorophenyl)ethyl)-1,2,4-oxadiazole-3-carboxamide] | > 10
0.63 | Cc1cc(-c2ncnc3[nH]c(-c4ccc(N5CCN(CC6CCN(c7ccc(N8CCC(=O)NC8=O)cc7)CC6)CC5)cc4)cc23)ccc1CNC(=O)c1cnn(C(C)(C)C)c1 [Example 35, 1-(tert-butyl)-N-(4-(6-(4-(4-((1-(4-(2,4-dioxotetrahydropyrimidin-1(2H)-yl)phenyl)piperidin-4-yl)methyl)piperazin-1-yl)phenyl)-7H-pyrrolo[2,3-d]pyrimidin-4-yl)-2-methylbenzyl)-1H-pyrazole-4-carboxamide] | > 10
1.5 | Cc1cc(CNC(=O)c2ccc(C(C)(C)O)cc2F)c(F)cc1-c1ncnc2[nH]c(-c3ccc(C4CCN(CC5CCN(c6ccc(N7CCC(=O)NC7=O)cc6)CC5)CC4)cc3)cc12 [Example 36, N-(4-(6-(4-(1-((1-(4-(2,4-dioxotetrahydropyrimidin-1(2H)-yl)phenyl)piperidin-4-yl)methyl)piperidin-4-yl)phenyl)-7H-pyrrolo[2,3-d]pyrimidin-4-yl)-2-fluoro-5-methylbenzyl)-2-fluoro-4-(2-hydroxypropan-2-yl)benzamide] | > 10
1.2 | Cc1cc(-c2ncnc3[nH]c(-c4ccc(N5CCN(CC6CCN(c7ccc(N8CCC(=O)NC8=O)cc7)CC6)CC5)cc4)cc23)ccc1CNC(=O)c1cn(C(C)(C)C)nn1 [Example 37, 1-(tert-butyl)-N-(4-(6-(4-(4-((1-(4-(2,4-dioxotetrahydropyrimidin-1(2H)-yl)phenyl)piperidin-4-yl)methyl)piperazin-1-yl)phenyl)-7H-pyrrolo[2,3-d]pyrimidin-4-yl)-2-methylbenzyl)-1H-1,2,3-triazole-4-carboxamide] | > 10
2.1 | Cc1cc(-c2ncnc3[nH]c(-c4ccc(N5CCN(CC6CCN(c7ccc(N8CCC(=O)NC8=O)cc7)CC6)CC5)c(F)c4)cc23)ccc1[C@@H](C)NC(=O)c1nc(C(C)(C)C)no1 [Example 38, (R)-3-(tert-butyl)-N-(1-(4-(6-(4-(4-((1-(4-(2,4-dioxotetrahydropyrimidin-1(2H)-yl)phenyl)piperidin-4-yl)methyl)piperazin-1-yl)-3-fluorophenyl)-7H-pyrrolo[2,3-d]pyrimidin-4-yl)-2-methylphenyl)ethyl)-1,2,4-oxadiazole-5-carboxamide, Formate] | > 10

Source: patent US20230167118A1, “DEGRADATION OF BRUTON'S TYROSINE KINASE (BTK) BY CONJUGATION OF BTK INIDBITORS WITH E3 LIGASE LIGAND AND METHODS OF USE” (BEIGENE, LTD., priority 2020, published 2023)
